Holding throughout (assay): Cysteine liganding, probe competition
Assay type in all cases: binding

The target in experiment [1] is T1, DCAF17 DDB1- and CUL4-associated factor 17 (Homo sapiens, UniProt Q5H9S7).
T1 construct: Cells were resuspended in cold PBS on ice and sonicated with a probe sonicator to achieve lysis; endogenous in cells
T1 sequence (Q5H9S7 1-520): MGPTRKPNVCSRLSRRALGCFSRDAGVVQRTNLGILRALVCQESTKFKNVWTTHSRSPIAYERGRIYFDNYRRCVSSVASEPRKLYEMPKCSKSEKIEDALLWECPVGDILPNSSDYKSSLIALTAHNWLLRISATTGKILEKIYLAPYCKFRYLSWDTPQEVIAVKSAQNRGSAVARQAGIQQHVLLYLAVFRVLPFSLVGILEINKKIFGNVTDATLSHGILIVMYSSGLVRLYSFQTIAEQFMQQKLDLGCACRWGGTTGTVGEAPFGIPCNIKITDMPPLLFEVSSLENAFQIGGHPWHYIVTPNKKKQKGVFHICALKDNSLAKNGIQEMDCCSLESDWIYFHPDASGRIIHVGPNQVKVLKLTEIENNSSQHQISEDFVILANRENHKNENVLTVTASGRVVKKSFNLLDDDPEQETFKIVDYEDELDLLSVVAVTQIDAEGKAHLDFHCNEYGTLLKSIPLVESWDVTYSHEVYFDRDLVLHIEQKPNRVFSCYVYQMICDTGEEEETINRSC
Put shortly: (§1)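 Read-out is loss of desthiobiotin iodoacetamide labelling at cysteines, measured on streptavidin-enriched tryptic peptides. Compound preincubation ran 1 hr at 25° C in PBS lysate holding 5 mg/ml proteome before the probe was added.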

The target of experiment [2] is T2, NOP56 Nucleolar protein 56 (Homo sapiens, UniProt O00567).
T2 construct: Cells were resuspended in cold PBS on ice and sonicated with a probe sonicator to achieve lysis; endogenous in cells
T2 sequence (O00567 1-594): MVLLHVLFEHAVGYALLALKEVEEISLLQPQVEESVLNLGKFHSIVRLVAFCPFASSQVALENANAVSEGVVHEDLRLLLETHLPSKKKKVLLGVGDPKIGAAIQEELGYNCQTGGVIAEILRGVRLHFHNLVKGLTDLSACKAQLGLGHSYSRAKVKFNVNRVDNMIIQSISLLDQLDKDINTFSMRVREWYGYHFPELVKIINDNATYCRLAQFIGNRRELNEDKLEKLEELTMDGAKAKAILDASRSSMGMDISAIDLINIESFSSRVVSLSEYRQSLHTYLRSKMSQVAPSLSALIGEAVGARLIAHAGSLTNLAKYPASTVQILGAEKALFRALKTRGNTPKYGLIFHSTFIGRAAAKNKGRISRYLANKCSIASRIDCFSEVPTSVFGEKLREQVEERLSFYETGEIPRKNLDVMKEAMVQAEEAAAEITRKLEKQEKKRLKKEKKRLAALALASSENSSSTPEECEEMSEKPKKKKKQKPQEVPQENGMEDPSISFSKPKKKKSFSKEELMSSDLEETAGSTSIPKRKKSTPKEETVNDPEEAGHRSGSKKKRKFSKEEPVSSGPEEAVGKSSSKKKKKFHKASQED
Put shortly:
as §1

Experiment [3] concerns the target T3, PPCDC Phosphopantothenoylcysteine decarboxylase (Homo sapiens, UniProt Q96CD2).
T3 construct: Cells were resuspended in cold PBS on ice and sonicated with a probe sonicator to achieve lysis; endogenous in cells
T3 sequence (Q96CD2 1-204): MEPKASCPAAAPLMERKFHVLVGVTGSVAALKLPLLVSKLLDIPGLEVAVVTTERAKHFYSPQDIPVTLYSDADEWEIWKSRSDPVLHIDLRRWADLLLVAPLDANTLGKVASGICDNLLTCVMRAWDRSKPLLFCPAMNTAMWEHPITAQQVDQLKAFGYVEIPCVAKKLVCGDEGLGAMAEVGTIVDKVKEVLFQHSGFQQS
Put shortly: as §1

[4] abbreviates: uniprot O00567, in % (unit assumed).

In the case of `O=C(CCl)Nc1cc(C(F)(F)F)cc(C(F)(F)F)c1` [KBO3], in experiment [1] (uniprot Q5H9S7), the “100 Max” value is listed as −21.2 and the 100 ave was −21.2. Also, in experiment [2] (uniprot O00567), the 100 ave is recorded as 27.36 and the 500 ave turned out to be 68.12. Besides, in experiment [2] (setting [4]), the “100 Max” value is on record as 51.21 and the “500 Max” value is 68.12. In addition, in experiment [3] (uniprot Q96CD2), the “100 Max” value came out at 23.85, the 100 ave is given as 13.215, the “500 Max” value was found to be 71.73 and the 500 ave is 71.73.

As for `COc1ccc2c(c1)CCCN2C(=O)CCl` [KB02], in experiment [1] (DCAF17 Res# 20, uniprot Q5H9S7), the Liganded result was “YES”. Besides, in experiment [1] (uniprot Q5H9S7), the “100 Max” value was found to be 60.8, the 100 ave is recorded as 40.3, the “500 Max” value is recorded as 91.7 and the 500 ave stood at 91.7. In addition, the Liganded result in experiment [2] (NOP56 Res# 211, uniprot O00567) is on record as “YES”. In experiment [3] (PPCDC Res# 173, uniprot Q96CD2), the Liganded entry is “YES”.

These data come from patent US20200239530A1, “COMPOUNDS AND METHODS OF MODULATING PROTEIN DEGRADATION” (Vividion Therapeutics, Inc., priority 2017, published 2020).
